This is an account of results in paper PMC2585982 (Toxicology and applied pharmacology, 2008).

One series deals with human PXR. The note with it: read-out: EC50, activation of human PXR; ref Yang and Yan, 2007; cited from earlier work.
A further series concerns rat PXR. The note with it: read-out: EC50, activation of rat PXR; ref Yang and Yan, 2007; cited from earlier work.
The next series relates to P450 2B. The note with it: cited from earlier work.
The test system of the next series is P450 1A1/1A2. The note with it: mouse, in vivo.
Series [1] relates to P450s 2B9/10. The note with it: mouse, in vivo; cited from earlier work.
In a further series the test system is NQO. Description: Liver cytosolic NQO activity. Format: in vivo, mice. The note with it: female SENCAR mice, 35, 70, 150 mg/kg p.o. 4 days, vs corn oil.
In the next series the test system is P450s 1A1/2. Description: Liver microsomal P450 1A activity. Type of series: in vivo, mice. The settings on record: mouse, in vivo. A general note: Liver microsomes are a subcellular fraction often used to study metabolism.
In series [2] the test system is P450s 2B9/10. Description: Liver microsomal P450 2B activity. The settings on record: mouse, in vivo. Format: in vivo, mice.
Another series concerns GSTμ. Description: Western blot of liver cytosol, GSTμ protein expression. Type of series: in vivo, mice. The note with it: SENCAR mice, 35, 70, 150 mg/kg p.o. In general terms: A western blot detects proteins with antibodies after separation by electrophoresis.
In the next series the test system is GSTπ. Description: Western blot of liver cytosol, GSTπ protein expression. Type of series: in vivo. The note with it: SENCAR mice, 35, 70, 150 mg/kg p.o.
A further series concerns GSTα. Description: Western blot of liver cytosol, GSTα protein expression. The note with it: SENCAR mice, 35, 70, 150 mg/kg p.o., particularly at the highest doses. Type of series: in vivo.
Series [3] deals with GST (cumene hydroperoxide). Description: Liver GST activity, cumene hydroperoxide as substrate, after oral dosing of mice. Type of series: in vivo. The note with it: female SENCAR mice, even at the highest doses, data not shown.
In a further series the test system is P450 2B10. The note with it: mouse, in vivo.
The next series concerns P450 3A11. Description: Liver microsomal P450 3A activity. The settings on record: mouse, in vivo. Type of series: in vivo, mice.

Take `COc1c2occc2cc2ccc(=O)oc12` [8-methoxypsoralen]: the EC50 in the series on human PXR and in the series on rat PXR was 14 µM each time.

Regarding `CC(C)=CCOc1c2occc2cc2ccc(=O)oc12` [imperatorin], the “Potency at blocking P450 2B activity relative to isopimpinellin” value in the series on P450 2B is 10–100 times. Besides, the “P450 1A1/1A2 protein levels, dose-response study” value with P450 1A1/1A2 was “elevated”. In the series on P450s 2B9/10 [1], the “Hepatic P450 2B9/10 activity at 1 h after the final dose” value was “no elevation” and the “Increase in hepatic P450 2B9/10 activity at 24 h after the final dose” value is given as 100 fold. In addition, in the series on NQO, the “Liver cytosolic NQO activity, dose-response study” value is given as “increased at all doses”. Moreover, in the series on P450s 1A1/2, the “P450 1 activity, liver microsomes, dose-response study” value was “significant increases”. Further, in the series on P450s 2B9/10 [2], the “Increase in P450 2B9/10 enzyme activity, dose-response study” value is on record as ~ 100 fold and the “P450 2B activity, liver microsomes, dose-response study” value is reported as “significant increases”. Further, the “Hepatic expression of GST μ protein, dose-response study” value in the series with GSTμ is listed as “no increase”. Moreover, the “Hepatic expression of GST π protein, dose-response study” value in the series with GSTπ is listed as “modest increase”. Also, the “Hepatic expression of GST α protein, dose-response study” value in the series with GSTα is reported as “greatly increased”. The “GST activity using cumene hydroperoxide as a substrate” value in series [3] is given as “no differences”. For the same molecule, in the series on P450 2B10, the “Increase in P450 2B9/10 protein expression (optical density), dose-response study” value was 1.5–2 fold and the “P450 2B10 protein levels, dose-response study” value is “significantly elevated”. Further, in the series with P450 3A11, the “P450 3A activity, liver microsomes, dose-response study” value is on record as “increased”.

The EC50 is the midpoint of the concentration-response curve.
